Measurements taken from ChEMBL document CHEMBL1131004, “Optimizing the binding of fullerene inhibitors of the HIV-1 protease through predicted increases in hydrophobic desolvation” (J Med Chem, 1998).

Each molecule was assayed against Human immunodeficiency virus type 1 protease (Human immunodeficiency virus 1, UniProt Q72874) (assay: Binding affinity towards HIV-1 Protease).

Compound	Ki [nM]
O=C(O)CCC(=O)NCCc1ccc(C2(c3ccc(CCNC(=O)CCC(=O)O)cc3)C34c5c6c7c8c9c%10c(c%11c%12c3c3c5c5c%13c6c6c7c7c9c9c%14c%10c%10c%11c%11c%12c%12c3c3c5c5c%13c%13c6c6c7c9c7c9c%14c%10c%10c%11c%11c%12c3c3c5c5c%13c6c7c6c9c%10c%11c3c56)C824)cc1	5000
OC(c1ccccc1)C1(c2ccccc2)C23c4c5c6c7c8c9c(c%10c%11c2c2c4c4c%12c5c5c6c6c8c8c%13c9c9c%10c%10c%11c%11c2c2c4c4c%12c%12c5c5c6c8c6c8c%13c9c9c%10c%10c%11c2c2c4c4c%12c5c6c5c8c9c%10c2c45)C731 (stereo not drawn)	103
CC(C)C1CC(O)C(C(C)C)C23c4c5c6c7c8c9c(c%10c%11c2c2c4c4c%12c5c5c6c6c8c8c%13c9c9c%10c%10c%11c%11c2c2c4c4c%12c%12c5c5c6c8c6c8c%13c9c9c%10c%10c%11c2c2c4c4c%12c5c6c5c8c9c%10c2c45)C713 (stereo not drawn)	150
